Results as given in publication PMC9928118, “Funneling modulatory peptide design with generative models: Discovery and characterization of disruptors of calcineurin protein-protein interactions” (PLOS Computational Biology, 2023).
One block for each sequence: values may come before it.

Tested on: GST-tagged Cn
Test: PEPperPRINT peptide microarray binding assay with GST-tagged Cn
Text: We then estimated in-silico the binding strength of the various peptides to Cn by template-based docking followed by flexible backbone refinement using Modeller and PepCrawler (Figs 4 and S4). In parallel, we performed a medium-throughput qualitative binding assay using a PEPperPRINT peptide microarray to evaluate the direct binding of Cn to selected peptides (Figs 4 and S5, S3 Data).
Fig 4 Medium-throughput filtering by structural modeling and microarray screening. (a) Depiction of the structural modeling protocol: after alignment to the known PxIxIT binding site, an efficient flexible backbone structure refinement algorithm is applied to estimate the docking energy. […] (c) Coefficients of the equivalent single-site model fitted by sparse linear regression, shown in weight logo representation. […] Colors indicate physical property (black = hydrophobic, red = negatively charged, etc.). (d) Per-gene distribution of docking scores across natural fragments (lower is better). […] (e) Overview of the microarray screening. Peptides are printed on the chip (two circles per peptide). After pouring of Cn and subsequent washing, fluorescent-tagged, a Cn-targeting antibody is overlaid and an image is taken. Fluorescent spots indicate strong Cn binders. (f) Scatter plot of the sequence likelihood (normalized by length, higher is better) against fluorescence level (higher is better, see Methods for details of the data analysis).
In parallel, selected peptides were tested for Cn binding on a chip microarray (PEPperPRINT). 786 peptides were printed on the chip and were incubated with GST-tagged Cn overnight at 4°C. Following extensive washing, binding was detected by applying a fluorescently labeled (Alexa-Fluor 647) GST antibody. […] The experiment was repeated five times, and Z-normalized fluorescence levels were determined following post-processing of the raw data (Methods, S5A, S5B and S5C Fig).
The peptide array was prepared as a custom array pepper chip (PEPperPRINT). For binding detection, 1mg/ml GST-tagged Cn was incubated overnight on the microarray at 4°C. Following extensive washing, fluorescently labeled (Alexa-Fluor 647) GST-antibody. […] The experiment was repeated five times. Each scan was analyzed as follows: a grid was overlaid using the border HA markers to determine regions of interest (ROI) for each peptide (two ROIs per peptide) and the logarithm of the average fluorescence intensity was computed for each ROI. […] To remove spatial artifacts, a position-dependent baseline fluorescence was fitted using a second-order polynomial, and subtracted to the fluorescence. Fluorescence levels were next averaged over the two ROI for each peptide and Z-normalized. […] The Z-scores were averaged over the five repetitions to yield one fluorescence score per peptide.

[1] = GST-tagged Cn, max over the chip locations
[2] = GST-tagged Cn, mean over the chip locations
[3] = GST-tagged Cn, max over the chip spots listed under Location on chip
[4] = GST-tagged Cn, mean over the chip spots listed under Location on chip
[5] = GST-tagged Cn, max over the spots named in Location on chip
[6] = GST-tagged Cn, mean over the spots named in Location on chip
[7] = max over the spots listed under Location on chip
[8] = mean over the spots listed under Location on chip
[9] = GST-tagged Cn, max over the spots on the chip (two locations)
[10] = GST-tagged Cn, mean over the spots on the chip (two locations)
[11] = max over the chip locations listed for the peptide (two spots)
[12] = mean over the chip locations listed for the peptide (two spots)

Sequence: HVSSSPDITLTPTQHR [SeqRBMlowT_782]
Chip Fluorescence (max) [1]: -0.2367 | Chip Fluorescence (mean) [2]: -0.7632

Sequence: HVSSSPDITVTPTQHR [SeqRBMlowT_701]
Chip Fluorescence (max) [1]: 0.2772 | Chip Fluorescence (mean) [2]: -0.7766

Sequence: HVSSSPDIVITPTQHR [SeqRBMlowT_1399]
Chip Fluorescence (max) [1]: 0.3374 | Chip Fluorescence (mean) [2]: -0.4706

Sequence: HVSSSPDVTLKIPQHR [SeqRBMlowT_2187]
Chip Fluorescence (max) [3]: 0.8915 | Chip Fluorescence (mean) [4]: -0.5849

Sequence: HVSSSPRITITPTQHR [SeqRBMlowT_743]
Chip Fluorescence (max) [7]: 2.778 | Chip Fluorescence (mean) [8]: 0.8662

Sequence: HVSSSSDITITPTQHR [SeqRBMlowT_2715]
Chip Fluorescence (max) [9]: 1.1425 | Chip Fluorescence (mean) [10]: -0.2145

Sequence: IKLIIWNHNISNHGTY [SeqRBM_5872]
Chip Fluorescence (max) [11]: 8.925 | Chip Fluorescence (mean) [12]: 1.809

Sequence: KAYIMLFFTFIDGGQK [SeqRBM_3979]
Chip Fluorescence (max) [3]: 0.8506 | Chip Fluorescence (mean) [4]: -0.3833

Sequence: KAYINPFMQFIDGGRR [SeqRBMlowT_549]
Chip Fluorescence (max) [7]: 3.298 | Chip Fluorescence (mean) [8]: 1.4015

Sequence: KAYINPFMTFIEGGRK [SeqRBMlowT_3627]
Chip Fluorescence (max) [11]: 4.329 | Chip Fluorescence (mean) [12]: 0.4696

Sequence: KAYINPSMVFIEGGRR [SeqRBM_7863]
Chip Fluorescence (max) [7]: 2.964 | Chip Fluorescence (mean) [8]: 0.9132

Sequence: KAYMCPAVSFQDGGRR [SeqRBMlowT_4017]
Chip Fluorescence (max) [5]: 1.6 | Chip Fluorescence (mean) [6]: -0.3289

Sequence: KAYMCPFMQFIDGGRK [SeqRBMlowT_522]
Chip Fluorescence (max) [7]: 2.8656 | Chip Fluorescence (mean) [8]: 1.3266

Sequence: KAYMCPFMQFIEGGRR [SeqRBMlowT_535]
Chip Fluorescence (max) [3]: 0.9778 | Chip Fluorescence (mean) [4]: -1.603

Sequence: KAYMCPFMQFQDGGRR [SeqRBMlowT_520]
Chip Fluorescence (max) [3]: 0.6726 | Chip Fluorescence (mean) [4]: 0.4462

Sequence: KAYMCPFMSFIDGGQR [SeqRBMlowT_3665]
Chip Fluorescence (max) [7]: 2.726 | Chip Fluorescence (mean) [8]: 0.3874

Sequence: KAYMCPYMDFQDGGRR [SeqRBM_4270]
Chip Fluorescence (max) [7]: 3.135 | Chip Fluorescence (mean) [8]: 0.405

Sequence: KAYMCSFMRFIEGGRR [SeqRBMlowT_3379]
Chip Fluorescence (max) [7]: 2.957 | Chip Fluorescence (mean) [8]: -0.3215

Sequence: KAYMNPFMQFIDGGRR [SeqRBMlowT_560]
Chip Fluorescence (max) [11]: 4.3098 | Chip Fluorescence (mean) [12]: 0.3269

Sequence: KDMLIPRPSSQDSGAY [SeqRBM_5587]
Chip Fluorescence (max) [5]: 1.626 | Chip Fluorescence (mean) [6]: -0.4019

Sequence: KEGPISSTVVMEALSI [SeqRBM_843]
Chip Fluorescence (max) [3]: 0.8382 | Chip Fluorescence (mean) [4]: -0.2608

Now from value to sequence:

Chip Fluorescence (max) [3]: 0.8955 | Chip Fluorescence (mean) [4]: -0.3348
Sequence: HVSSSPDVTLTPTQHR [SeqRBMlowT_4550]

Chip Fluorescence (max) [5]: 1.646 | Chip Fluorescence (mean) [6]: -0.634
Sequence: HVSSSPRIAITPTQHR [SeqRBMlowT_8885]

Chip Fluorescence (max) [5]: 1.415 | Chip Fluorescence (mean) [6]: 0.2946
Sequence: HVSSSVDIVITPTQHR [SeqRBMlowT_8839]

Chip Fluorescence (max) [3]: 0.9778 | Chip Fluorescence (mean) [4]: -1.603
Sequence: KAYMCPFMQFIEGGRR [SeqSFB3_Pan_troglodytes]

Chip Fluorescence (max) [9]: 1.2267 | Chip Fluorescence (mean) [10]: -0.003433
Sequence: KAYMCPSMQFIDGGRR [SeqRBMlowT_9264]

Chip Fluorescence (max) [5]: 1.462 | Chip Fluorescence (mean) [6]: 1.063
Sequence: KAYMCPYMQFIDGGRK [SeqRBMlowT_9280]

Chip Fluorescence (max) [9]: 1.204 | Chip Fluorescence (mean) [10]: -0.1516
Sequence: KAYMNPYMQFIDGGRR [SeqRBMlowT_4720]

Chip Fluorescence (max) [9]: 1.252 | Chip Fluorescence (mean) [10]: -0.2059
Sequence: KAYMNPYVQFIDGGRR [SeqRBMlowT_9255]

Chip Fluorescence (max) [5]: 1.597 | Chip Fluorescence (mean) [6]: -0.04342
Sequence: KAYMSPFMQFVDAGRR [SeqSFB3_Nasonia_vitripennis]

Chip Fluorescence (max) [7]: 2.798 | Chip Fluorescence (mean) [8]: 1.173
Sequence: KAYMSPFMSFIDGGRR [SeqRBMlowT_6614]

Chip Fluorescence (max) [3]: 0.8078 | Chip Fluorescence (mean) [4]: -0.09052
Sequence: KDKAGKRSHLKGHSES [Seqshuffled_5410]
